Like-named read-outs stand apart in the source and are kept apart here.
Experiments:
[1] = test system: E. coli; experiment: In vivo study of residual antimicrobial efficacy on finger taps (Example 7); conditions: finger taps inoculated with E. coli 30 min (controls) or 30 min, 1 hr, 2 hrs (test article) post application
Method: • 1) Wash hands with nonmedicated soap to remove surface dirt and oil, dried, and finally decontaminate with 70% isopropyl alcohol. Allow to air dry. • 2) Apply test article (Sanitizer A containing 5% CAGE) and controls (70% Alcohol and DI Water or 0.9% Sterile Saline Solution) on each finger tap to cover it completely. Let it dry. • 3) Inoculate the finger taps #1-3 with 10 μL of high-concentrated suspension of E. coli at 30 min of post-application. • 4) Wait for 60 sec (contact time) • 5) Tap the finger on the TSA agar plate and transfer plates #1-3 into the incubator set at 37° C. • 6) Apply 10 μL of inoculum on Finger #4 at 1 hr. of post application. • 7) Wait for 60 sec and tap the finger on the TSA agar plate. Transfer plate into the incubator set at 37° C. • 8) Apply 10 μL of inoculum on Finger #5 at 2 hrs of post application. • 9) Wait for 60 sec and tap the finger on the TSA agar plate. Transfer plate into the incubator set at 37° C. • 10) Observe bacterial growth after 24 hrs in incubator.

[2] = test system: human Coronavirus strain 229E (hCoV229E) (ATCC #VR-740); conditions: for TCID10 (log10): 5% w/w in purified water, virus control 6.50; for CPE (cytopathic/cytotoxic effect), four replicate wells: 5% w/w
[3] = in vivo
Method: Distilled water was used as a negative control. The patches were removed by the subjects after 24 h and a new one was applied by the site staff at the same exact site at the next visit. The subjects reported to the site for a total of 9 visits, 3 each week. During each visit the application area was observed by the study investigator and a new patch was applied.
This cosmetic study was approved by an IRB and conducted by AMA Laboratories Inc. in New York. […] The application area was occluded with hypoallergenic tape. The subjects were required to keep the tape for 24 h. At each visit, the application site was evaluated for skin irritation on a 5-point scale (0-4). […] The subjects were then evaluated for any skin reactions after 24 and 48 h.

| Molecule | microbial growth after 24 hrs at 37° C. [1] | TCID10 (log10) ([2]; 5 minutes exposure) | TCID10 (log10) ([2]; 10 minutes exposure) | CPE (cytopathic/cytotoxic effect), four replicate wells ([2]; 5 minutes exposure, dilution (−Log10) −3) | CPE (cytopathic/cytotoxic effect), four replicate wells ([2]; 5 minutes exposure, dilution (−Log10) −4) | CPE (cytopathic/cytotoxic effect), four replicate wells ([2]; 5 minutes exposure, dilution (−Log10) −5) | CPE (cytopathic/cytotoxic effect), four replicate wells ([2]; 5 minutes exposure, dilution (−Log10) −6) | CPE (cytopathic/cytotoxic effect), four replicate wells ([2]; 5 minutes exposure, dilution (−Log10) −7) | CPE (cytopathic/cytotoxic effect), four replicate wells ([2]; 10 minutes exposure, dilution (−Log10) −3) | CPE (cytopathic/cytotoxic effect), four replicate wells ([2]; 10 minutes exposure, dilution (−Log10) −4) | CPE (cytopathic/cytotoxic effect), four replicate wells ([2]; 10 minutes exposure, dilution (−Log10) −5) | CPE (cytopathic/cytotoxic effect), four replicate wells ([2]; 10 minutes exposure, dilution (−Log10) −6) | CPE (cytopathic/cytotoxic effect), four replicate wells ([2]; 10 minutes exposure, dilution (−Log10) −7) | other adverse events reported in the study [3] | sensitization response [3] | subjects showing any skin reactions in the first 3 visits (7-days) [3] | subjects that did not display any irritation throughout the entire 21-day study [3] [subjects] | subjects that experienced some skin irritation [3] [subjects] |
| --- | --- | --- | --- | --- | --- | --- | --- | --- | --- | --- | --- | --- | --- | --- | --- | --- | --- | --- |
| CCO [70% Ethanol, Ethanol] | Microbial growth was observed |  |  |  |  |  |  |  |  |  |  |  |  |  |  |  |  |  |
| choline geranate [CG-101] |  | ≤2.50 | ≤2.50 | 0000 | 0000 | 0000 | 0000 | 0000 | 0000 | 0000 | 0000 | 0000 | 0000 | no other adverse events | did not create any sensitization response | None | 43 | 8 |

— US12678384B2, “Sanitizing compositions containing ionic liquid” (CAGE BIO INC., priority 2020, dated 2026)
